Values joined by “and” are separate entries in the source; they are usually repeats but may differ in a detail not shown here. Identical values can stand only once.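 Test compounds were applied to cells in 96-well plates for 48 hours at 5 doses. GI50 marks 50% less growth. TGI: concentration producing complete growth inhibition.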
Key:
Assay in all cases: NCI-60 cell line screen, 48 h
SN12C renal = tested on: SN12C renal
SF-268 CNS = tested on: SF-268 CNS
NCI-H522 lung = tested on: NCI-H522 lung
A498 renal = tested on: A498 renal
OVCAR-8 ovarian = tested on: OVCAR-8 ovarian
SK-MEL-2 melanoma = tested on: SK-MEL-2 melanoma
HCC-2998 colon = tested on: HCC-2998 colon
DMS 114 small cell lung = tested on: DMS 114 small cell lung
T-47D breast = tested on: T-47D breast

Compound	TGI (SN12C renal)	TGI (SF-268 CNS)	TGI (NCI-H522 lung)	TGI (A498 renal)	TGI (OVCAR-8 ovarian)	TGI (SK-MEL-2 melanoma)	TGI (HCC-2998 colon)	TGI (DMS 114 small cell lung) [µM]	GI50 (SN12C renal)	GI50 (SF-268 CNS)	GI50 (NCI-H522 lung)	GI50 (A498 renal)	GI50 (OVCAR-8 ovarian)	GI50 (T-47D breast)	TGI (T-47D breast)	GI50 (SK-MEL-2 melanoma)	GI50 (HCC-2998 colon)
CCCCC(C(=O)CCC(=O)Nc1ccc(Cl)cc1)C(=O)C(C)C (configuration not stated)	> 100 µM	> 100 µM	> 100 µM	> 100 µM	> 100 µM	> 100 µM	> 100 µM	> 100	–	–	–	–	–	–	–	–	–
N#Cc1cn(-c2c3ccccc3nc3ccccc23)c(=O)[nH]c1=O	–	29.7 µM	18.3 µM	–	27.6 µM	24.9 µM	–	35.4	–	–	–	–	–	–	–	–	–
CN1CCN(c2ccc(Nc3ncc4cc5n(c4n3)C3(CCCCC3)CNC5=O)nc2)CC1	12.2 µM	4.94 µM	31.5 µM	1.8 µM	86.1 µM	21.8 µM	30.4 µM	–	1.5 µM	1.46 µM	9.01 µM	0.17 µM	4.11 µM	4.15 µM	> 100 µM	4.49 µM	6.14 µM
C[C@H](c1ccccc1)N(CCC(=O)O)C(=O)CCN(C(=O)CCN(C(=O)CCN[C@H](C)c1ccccc1)[C@H](C)c1ccccc1)[C@H](C)c1ccccc1	> 100 µM	> 100 µM	> 100 µM	> 100 µM	> 100 µM	> 100 µM	> 100 µM	–	> 100 µM	> 100 µM	> 100 µM	> 100 µM	> 100 µM	> 100 µM	> 100 µM	> 100 µM	> 100 µM
CCN1C(=O)N(CC)C2C1NN=c1s/c(=C\c3ccc(OC)cc3)c(=O)n12 (configuration not stated)	> 100 µM	> 80.1 µM	–	0.0924 µM	–	> 100 µM	> 100 µM	–	0.454 µM	0.577 µM	0.105 µM	0.0222 µM	0.369 µM	0.163 µM	> 100 µM	1.66 µM	0.357 µM
Oc1cccc(-c2nc(-c3ccccc3)[nH]c2-c2ccncc2)c1	> 25 µM	> 25 µM	> 25 µM	17.4 µM	> 25 µM	18.9 µM	> 25 µM	–	15.9 µM	24.3 µM	11.8 µM	6.07 µM	> 25 µM	9.31 µM	24.3 µM	6.91 µM	11.7 µM
COC(=O)c1ccc2c(C(=Nc3ccc(N(C)C(=O)CN4CCN(C)CC4)cc3)c3ccccc3)c(O)[nH]c2c1	31.9 µM and > 87.6 µM	–	3.67 µM and 5.77 µM	5.52 µM and 10.1 µM	27.6 µM and > 100 µM	19.1 µM and 8.86 µM	30.7 µM and 73.8 µM	–	1.23 µM and 0.959 µM	1.79 µM and 2.29 µM	1.5 µM and 1.75 µM	0.613 µM and 0.604 µM	2.31 µM and 2.43 µM	3.66 µM and 16.7 µM	36.3 µM and > 100 µM	8.11 µM and 3.6 µM	11.2 µM and 7.26 µM
CCOC(=O)c1cc(-c2ccccc2)[nH]c1N/N=C/c1c(Cl)cccc1Cl	> 100 µM	> 100 µM	> 26.2 µM	43.7 µM	> 100 µM	87.5 µM	7.48 µM	–	4.3 µM	1.14 µM	0.701 µM	1.08 µM	4.77 µM	> 21.2 µM	> 100 µM	0.961 µM	1.01 µM
C#Cc1ccc(-n2c(/C=C/c3ccc4ccccc4c3)nc3ncccc3c2=O)cc1	> 100 µM	> 100 µM	> 100 µM	5.86 µM	> 100 µM	6.2 µM	5.04 µM	–	3.29 µM	2.6 µM	5.11 µM	1.69 µM	3.05 µM	3.9 µM	> 100 µM	2.41 µM	2.32 µM
CNCCNc1nc2ccccc2c2c(=O)c3cccc(C)c3sc12	8.37 µM	11.4 µM	4.42 µM	3.94 µM	7.65 µM	3.36 µM	1.65 µM	–	2.04 µM	3.53 µM	1.3 µM	1.07 µM	1.94 µM	0.876 µM	2.25 µM	1.28 µM	0.824 µM
CCCc1n(Cc2ccc3ccccc3n2)cc[n+]1Cc1ccc2ccccc2n1	11.8 µM	14.2 µM	5.07 µM	35 µM	12.3 µM	5.68 µM	14.8 µM	–	2.23 µM	2.3 µM	0.438 µM	7.21 µM	3.16 µM	0.416 µM	5.03 µM	1.52 µM	0.985 µM
N#Cc1ccc(/C=C/C(=O)c2ccccc2)cc1	28.3 µM and 27.7 µM	26.7 µM and 25.4 µM	22.4 µM and 31.5 µM	29.5 µM and 24.9 µM	22.2 µM and 27.5 µM	39.1 µM and 37.8 µM	10.7 µM and 10.3 µM	–	14.8 µM and 14.2 µM	13.3 µM and 9.61 µM	10.4 µM and 14.7 µM	14.3 µM and 12.3 µM	9.07 µM and 11.2 µM	11.1 µM and 12.2 µM	24.7 µM and 27.7 µM	18.9 µM and 18.8 µM	5.82 µM and 5.13 µM
Cc1cc2c(cc1Cl)N1C(=O)NS(=O)(=O)N=C1NS2(=O)=O	> 100 µM	> 100 µM	> 100 µM	> 100 µM	> 100 µM	> 100 µM	> 100 µM	–	> 100 µM	> 100 µM	> 100 µM	> 100 µM	> 100 µM	> 100 µM	> 100 µM	> 100 µM	> 100 µM
COc1ccc(/C=C2/CN(CCC#N)C/C(=C\c3ccc(OC)cc3)C2=O)cc1	6.31 µM	36.7 µM	4.32 µM	21.5 µM	> 100 µM	7.15 µM	3.47 µM	–	2.18 µM	3.27 µM	1.83 µM	5.03 µM	3.05 µM	3.76 µM	> 100 µM	2.72 µM	1.9 µM
CCN(CCO)CCCOc1ccc2c(Nc3cc(CC(=O)Nc4cccc(F)c4)[nH]n3)ncnc2c1	> 100 µM	32.2 µM and > 10 µM	37.2 µM and > 4.22 µM	> 100 µM	> 100 µM	35.4 µM and > 2.16 µM	61.9 µM and > 3.75 µM	–	19.8 µM	9.62 µM	–	> 49.1 µM	23.8 µM	13.9 µM	42.7 µM and > 2.45 µM	16.9 µM	20.8 µM

Source: PubChem BioAssay (NCI)
